Experimental data published in PMC7816197 (Journal of Medicinal Chemistry, 2020).

Assays:
human NAPE-PLD = human NAPE-PLD (Homo sapiens, UniProt Q6IQ20); assay: NAPE-PLD PED6 surrogate substrate activity assay; type: biochemical; settings: for fold increase in potency/activity: compared to 2; for fold drop in potency: compared to hit 2; for inhibitory activity in words: PED6 assay, human NAPE-PLD
HEK293 cells = settings: cited from earlier work
[1] = tested on: brains of freely moving mice; settings: cited from earlier work
Neuro-2a cells = settings: cited from earlier work
[2] = not suited for in vivo use; cited from earlier work

human NAPE-PLD, sequence (Q6IQ20 whole entry): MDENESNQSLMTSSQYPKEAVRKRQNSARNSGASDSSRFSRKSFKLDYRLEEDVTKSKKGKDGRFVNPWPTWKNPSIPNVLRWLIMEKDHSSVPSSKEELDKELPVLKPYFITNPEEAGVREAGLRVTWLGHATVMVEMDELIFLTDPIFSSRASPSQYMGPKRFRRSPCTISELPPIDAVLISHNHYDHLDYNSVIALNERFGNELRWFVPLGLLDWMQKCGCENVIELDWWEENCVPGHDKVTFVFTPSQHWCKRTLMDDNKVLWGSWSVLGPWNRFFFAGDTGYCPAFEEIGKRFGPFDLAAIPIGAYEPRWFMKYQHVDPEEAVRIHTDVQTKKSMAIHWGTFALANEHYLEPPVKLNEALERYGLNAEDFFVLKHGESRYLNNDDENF

## O=C(NCC1CC1)c1cc(N2CCOCC2)nc(N2CCCC(c3ccccc3)C2)n1 (racemic) [Compound 62, (±)-N-(Cyclopropylmethyl)-6-morpholino-2-(3-phenylpiperidin-1-yl)pyrimidine-4-carboxamide]
Human NAPE-PLD
  fold increase in potency/activity: 2 fold

## O=C(NCC1CC1)c1cc(N2CCOCC2)nc(N2CCCC2Cc2ccccc2)n1 (racemic) [Compound 63, (±)-2-(2-Benzylpyrrolidin-1-yl)-N-(cyclopropylmethyl)-6-morpholinopyrimidine-4-carboxamide]
Human NAPE-PLD
  fold increase in potency/activity: 2 fold

## O=c1[nH]c(=O)c2cc(S(=O)(=O)Nc3ccc(-c4ccncc4)cc3)ccc2[nH]1 [ARN19874]
Human NAPE-PLD
  IC50: 54 µM
HEK293 cells
  NAE levels: did not affect
  NAPE levels: increase

## O=C(NCC1CC1)c1cc(N2CC[C@H](O)C2)nc(N2CCC[C@@H](c3ccccc3)C2)n1 [Compound 1, N-(Cyclopropylmethyl)-6-((S)-3-hydroxypyrrolidin-1-yl)-2-((S)-3-phenylpiperidin-1-yl)pyrimidine-4-carboxamide]
Human NAPE-PLD; at a dose of 10 μM, full efficacy
  turnover of PED6: completely blocked
Human NAPE-PLD
  fold increase in potency/activity: 10 fold
[1]; 30 mg/kg, intraperitoneal injection
  anandamide levels in mouse brain: decreased
[1]; brains of freely moving mice
  NAE levels including anandamide: reduced
Neuro-2a cells
  NAE levels including anandamide: reduced

## CN(CCc1ccccc1)c1cc(N2CCOCC2)cc(C(=O)NCC2CC2)n1 [Compound 3, N-(Cyclopropylmethyl)-6-(methyl(phenethyl)amino)-4-morpholino-picolinamide]
Human NAPE-PLD
  fold drop in potency: 10 fold

## CN(CCc1ccccc1)c1nc(C(=O)NCC2CC2)nc(N2CCOCC2)n1 [Compound 6, N-(Cyclopropylmethyl)-4-(methyl(phenethyl)amino)-6-morpholino-1,3,5-triazine-2-carboxamide]
Human NAPE-PLD
  inhibitory activity in words: completely inactive

## CN(CC1CC1)C(=O)c1cc(N2CCOCC2)nc(N(C)CCc2ccccc2)n1 [Compound 7, N-(Cyclopropylmethyl)-N-methyl-2-(methyl(phenethyl)amino)-6-morpholinopyrimidine-4-carboxamide]
Human NAPE-PLD
  inhibitory activity in words: complete loss of potency

## CC(C)CNC(=O)c1cc(N2CCOCC2)nc(N(C)CCc2ccccc2)n1 [Compound 15, N-Isobutyl-2-(methyl(phenethyl)amino)-6-morpholinopyrimidine-4-carboxamide]
Human NAPE-PLD
  fold drop in potency: 10 fold

## CN(CCc1ccccc1)c1nc(NC(=O)CC2CC2)cc(N2CCOCC2)n1 [Compound 30, 2-Cyclopropyl-N-(2-(methyl(phenethyl)amino)-6-morpholinopyrimidin-4-yl)acetamide]
Human NAPE-PLD
  fold drop in potency: 10 fold

## O=C(NCC1CC1)c1cc(N2CCOCC2)nc(Cl)n1 [Compound 31, 2-Chloro-N-(cyclopropylmethyl)-6-morpholinopyrimidine-4-carboxamide]
Human NAPE-PLD
  inhibitory activity in words: inactive

## O=C(NCC1CC1)c1cc(N2CCOCC2)ncn1 [Compound 32, N-(Cyclopropylmethyl)-6-morpholinopyrimidine-4-carboxamide]
Human NAPE-PLD
  inhibitory activity in words: inactive

## CC(C)N(CCc1ccccc1)c1nc(C(=O)NCC2CC2)cc(N2CCOCC2)n1 [Compound 55, N-(Cyclopropylmethyl)-2-(isopropyl(phenethyl)amino)-6-morpholinopyrimidine-4-carboxamide]
Human NAPE-PLD
  fold increase in potency/activity: 2 fold

## CN(CCc1ccccc1)c1nc(C(=O)NCC2CC2)cc(N2CCCC(F)(F)C2)n1 [Compound 72, N-(Cyclopropylmethyl)-6-(3,3-difluoropiperidin-1-yl)-2-(methyl(phenethyl)amino)pyrimidine-4-carboxamide]
Human NAPE-PLD
  fold increase in potency/activity: 2 fold

## CN(C)c1cc(C(=O)NCC2CC2)nc(N(C)CCc2ccccc2)n1 [Compound 81, N-(Cyclopropylmethyl)-6-(dimethylamino)-2-(methyl(phenethyl)amino)pyrimidine-4-carboxamide]
Human NAPE-PLD
  fold increase in potency/activity: 2 fold

## CN(CCc1ccccc1)c1nc(C(=O)NCC2CC2)cc(N2CCCC2)n1 [Compound 87, N-(Cyclopropylmethyl)-2-(methyl(phenethyl)amino)-6-(pyrrolidin-1-yl)pyrimidine-4-carboxamide]
Human NAPE-PLD
  fold increase in potency/activity: ~4 fold

## O=C(NCC1CC1)c1cc(N2CC[C@@H](O)C2)nc(N2CCC[C@H](c3ccccc3)C2)n1 [Compound 107, N-(Cyclopropylmethyl)-6-((R)-3-hydroxypyrrolidin-1-yl)-2-((R)-3-phenylpiperidin-1-yl)pyrimidine-4-carboxamide]
Human NAPE-PLD; (R,R) enantiomer compared to 1
  fold-reduced activity: 3 fold

## Oc1c(Cl)cc(Cl)c(Cl)c1Cc1c(O)c(Cl)cc(Cl)c1Cl [hexachlorophene]
[2]
  neurotoxicity: neurotoxic effects

## C[C@H](CCC(=O)O)[C@H]1CC[C@H]2[C@@H]3CC[C@@H]4C[C@H](O)CC[C@]4(C)[C@H]3CC[C@]12C [lithocholic acid, reference compound]
Human NAPE-PLD
  inhibitory activity in words: not active
